# Reference: PMC13192270, “RhlR quorum-sensing receptor ligand sensitivity regulates the differential expression of phenazine genes in Pseudomonas aeruginosa” (Journal of Bacteriology, 2026)
# Experiments:
# [1] = system: ΔrhlI strain expressing RhlR A44M; assay: RNA-seq gene expression; type: cell-based, Pseudomonas aeruginosa; parameters: opmD Expression value / mexI Expression value / mexH Expression value / mexG Expression value / lasB Expression value / rhlA Expression value / rhlB Expression value / rhlR Expression value / lecB Expression value / fhp Expression value / chiC Expression value / hcnA Expression value / mvfR Expression value / katB Expression value / norC Expression value / norB Expression value / katA Expression value: unit not given here; conditions: 2 µM C4HSL
# Experimental: To determine the effects of hypo- and hypersensitivity to C4HSL on RhlR-dependent transcription activation in P. aeruginosa, we performed RNA-seq on ΔrhlI strains expressing WT RhlR, RhlR T58L, and RhlR A44M in the presence of 2 µM C4HSL. We chose this approach to better control the levels of C4HSL across samples. All gene expression analyses were done relative to a ΔrhlI strain without exogenous supplementation of AHL. Thus, we examined the total increase in C4HSL-dependent gene regulation. We observed increased rhlA RNA levels in strains expressing WT RhlR and the RhlR T58L variant compared to ΔrhlI without C4HSL or a strain expressing the RhlR A44M variant (Table 2; Table S1). […] To corroborate our RNA-seq data, we built an rhlA promoter fusion to mScarlet and assayed reporter levels in the same genetic backgrounds as our transcriptomic experiment (Fig. S7D). Strains expressing hypersensitive RhlR variants produced similar levels of fluorescent signal relative to the WT strain, while a strain expressing a hyposensitive RhlR variant had diminished levels of fluorescent reporter (Fig. S7D).
# A total of […] of overnight cultures was back diluted 1:100 in 20 mL of fresh LB media and incubated for 5 h at 37°C with shaking. Cells were harvested by centrifugation, and pellets were frozen until RNA extraction. RNA was extracted using the Invitrogen PureLink RNA Mini Kit. Pellets were resuspended in 100 µL lysozyme solution containing 10 mM Tris-HCl pH 8.0, 0.1 mM EDTA, and 1 mg/mL lysozyme. Five microliters of 1% SDS was added, and the solution was mixed with a vortex and incubated at room temperature for 5 min. A total of 350 µL lysis buffer (Invitrogen) was added with 10 µL 2-mercaptoethanol for each 1 mL of lysis buffer and vortexed. Cells were lysed by bead beating (BioSpec 0.1 MM Zirconia/Silica Beads) for two rounds of 50 s. Lysed cells were transferred to fresh microcentrifuge tubes with 250 µL of 100% ethanol and mixed with a vortex. Samples were spun in spin cartridges (Invitrogen) at 12,000 × g for 15 s at room temperature, and the flow-through was discarded. A total of 700 µL Wash Buffer I (Invitrogen) was added and spun at 12,000 × g for 15 s at room temperature, and the flow-through was discarded. A total of 500 µL Wash Buffer II (Invitrogen) with ethanol was added and centrifuged for 12,000 × g for 15 s at room temperature; the flow-through was discarded, and RNA samples were washed again. Cells were spun at 12,000 × g for 1 min at room temperature to dry the membrane with the bound RNA. A total of 50 µL RNAse-free water was added to the center of the spin cartridge, incubated at room temperature for 1 min, and centrifuged for 2 min at ≥12,000 × g at room temperature. Extracted RNA was then frozen at −80°C until further use.
# Bulk RNA was sent to SeqCenter (Pittsburgh, PA) where it was processed for paired-end Illumina sequencing via rRNA depletion using Ribo-Zero Plus (Illumina). Fastq files generated by SeqCenter were processed using Rockhopper with default settings ([61][–][63]). Briefly, fastq files were aligned to the genome of Pseudomonas aeruginosa UCBPP-PA14. The reads were subsequently normalized using upper-quartile normalization, and transcript abundance was determined by reads per kilobase per million mapped reads. Differential gene expression analysis was conducted using a negative binomial distribution model, outputting a P-value for each transcript. The P-values were then corrected for false discovery using the Benjamini-Hochberg procedure, resulting in the q-values reported here (Table S2). SignalMap v2.0 (NimbleGen Systems) was used to visualize read counts for phzABCDEFG1/2, phzH, phzM, and phzS (Fig. 5). Aligned sequences generated in Rockhopper were converted to GFF files, and genes of interest were isolated into unique GFF files ([37]).
# RhlR = system: RhlR; parameters: method as in PMID 28119451; conditions: cited from earlier work
smiles,measurement,setting,value
"CCCC(=O)N[C@H]1CCOC1=O [C4HSL, N-butyryl-L-homoserine lactone]",chiC Expression value,[1],"132,918.5"
same,fhp Expression value,[1],"8,878"
same,hcnA Expression value,[1],"38,430"
same,katA Expression value,[1],"3,887,333"
same,katB Expression value,[1],"13,211.5"
same,lasB Expression value,[1],"6,614,384"
same,lecB Expression value,[1],"208,420"
same,mexG Expression value,[1],"4,729.5"
same,mexH Expression value,[1],"11,247.5"
same,mexI Expression value,[1],"15,683.5"
same,mvfR Expression value,[1],"214,018"
same,norB Expression value,[1],"28,591"
same,norC Expression value,[1],"12,922.5"
same,opmD Expression value,[1],"6,012"
same,phnA Expression value,[1],"2,884,404"
same,phnB Expression value,[1],"694,083"
same,phzA1 Expression value,[1],"8,661"
same,phzA2 Expression value,[1],"11,533"
same,phzB1 Expression value,[1],"163,479"
same,phzB2 Expression value,[1],"178,704.5"
same,phzC1 Expression value,[1],"135,611.5"
same,phzC2 Expression value,[1],"156,044"
same,phzD1 Expression value,[1],"153,729"
same,phzD2 Expression value,[1],"137,242.5"
same,phzE1 Expression value,[1],"282,659.5"
same,phzE2 Expression value,[1],"202,642.5"
same,phzF1 Expression value,[1],"137,969"
same,phzF2 Expression value,[1],"139,410.5"
same,phzG1 Expression value,[1],"118,586"
same,phzG2 Expression value,[1],"88,845"
same,phzM Expression value,[1],"93,038"
same,phzS Expression value,[1],"303,377"
same,pqsA Expression value,[1],"3,743,059.5"
same,pqsB Expression value,[1],"5,794,985"
same,pqsC Expression value,[1],"5,614,134"
same,pqsD Expression value,[1],"6,055,112.5"
same,pqsE Expression value,[1],"3,188,208"
same,rhlA Expression value,[1],"200,100.5"
same,rhlB Expression value,[1],"165,369.5"
same,rhlR Expression value,[1],"581,659"
same,chiC Log2fold change,[1]; vs ΔrhlI without AHL,−0.05904
same,fhp Log2fold change,[1]; vs ΔrhlI without AHL,0.2001
same,hcnA Log2fold change,[1]; vs ΔrhlI without AHL,0.2595
same,katA Log2fold change,[1]; vs ΔrhlI without AHL,0.3253
same,katB Log2fold change,[1]; vs ΔrhlI without AHL,0.1017
same,lasB Log2fold change,[1]; vs ΔrhlI without AHL,1.048
same,lecB Log2fold change,[1]; vs ΔrhlI without AHL,−0.7762
same,mexG Log2fold change,[1]; vs ΔrhlI without AHL,0.2215
same,mexH Log2fold change,[1]; vs ΔrhlI without AHL,0.2256
same,mexI Log2fold change,[1]; vs ΔrhlI without AHL,−0.1584
same,mvfR Log2fold change,[1]; vs ΔrhlI without AHL,−0.1373
same,norB Log2fold change,[1]; vs ΔrhlI without AHL,−0.5108
same,norC Log2fold change,[1]; vs ΔrhlI without AHL,−0.6332
same,opmD Log2fold change,[1]; vs ΔrhlI without AHL,−0.2426
same,phnA Log2fold change,[1]; vs ΔrhlI without AHL,0.3171
same,phnB Log2fold change,[1]; vs ΔrhlI without AHL,0.2753
same,phzA1 Log2fold change,[1]; vs ΔrhlI without AHL,−1.792
same,phzA2 Log2fold change,[1]; vs ΔrhlI without AHL,0.1326
same,phzB1 Log2fold change,[1]; vs ΔrhlI without AHL,−1.046
same,phzB2 Log2fold change,[1]; vs ΔrhlI without AHL,−0.2412
same,phzC1 Log2fold change,[1]; vs ΔrhlI without AHL,−0.6965
same,phzC2 Log2fold change,[1]; vs ΔrhlI without AHL,−0.2301
same,phzD1 Log2fold change,[1]; vs ΔrhlI without AHL,−0.5047
same,phzD2 Log2fold change,[1]; vs ΔrhlI without AHL,−0.458
same,phzE1 Log2fold change,[1]; vs ΔrhlI without AHL,−0.5209
same,phzE2 Log2fold change,[1]; vs ΔrhlI without AHL,−0.574
same,phzF1 Log2fold change,[1]; vs ΔrhlI without AHL,−0.731
same,phzF2 Log2fold change,[1]; vs ΔrhlI without AHL,−0.7224
same,phzG1 Log2fold change,[1]; vs ΔrhlI without AHL,−0.7812
same,phzG2 Log2fold change,[1]; vs ΔrhlI without AHL,−0.325
same,phzM Log2fold change,[1]; vs ΔrhlI without AHL,−1.898
same,phzS Log2fold change,[1]; vs ΔrhlI without AHL,−1.303
same,pqsA Log2fold change,[1]; vs ΔrhlI without AHL,0.5012
same,pqsB Log2fold change,[1]; vs ΔrhlI without AHL,0.621
same,pqsC Log2fold change,[1]; vs ΔrhlI without AHL,0.5508
same,pqsD Log2fold change,[1]; vs ΔrhlI without AHL,0.4552
same,pqsE Log2fold change,[1]; vs ΔrhlI without AHL,0.3409
same,rhlA Log2fold change,[1]; vs ΔrhlI without AHL,−0.336
same,rhlB Log2fold change,[1]; vs ΔrhlI without AHL,0.3232
same,rhlR Log2fold change,[1]; vs ΔrhlI without AHL,−0.1335
same,EC50,RhlR,~5 µM
